Source: ChEMBL document CHEMBL1201862, “PubChem BioAssay data set” (2004)
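48-hour exposure; five concentrations; linearly interpolated endpoints. The concentration for 50% growth inhibition is given as GI50.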 Active and inactive are the calls of the source. Cut-off read from the data, not from the text of the source: active = GI50 up to about 1.1 µM and inactive = higher.

Tests used:
Test in all cases: growth of human tumour cells (NCI), 48 h
[1] = system: 786-0
[2] = system: A549
[3] = system: ACHN
[4] = system: CCRF-CEM
[5] = system: HCT-15
[6] = system: HOP-92
[7] = system: KM12
[8] = system: MOLT-4
[9] = system: Malme-3M
[10] = system: NCI-H522
[11] = system: OVCAR-3
[12] = system: OVCAR-5
[13] = system: SNB-19
[14] = system: SNB-75
[15] = system: TK-10
[16] = system: UACC-62
[17] = system: SR

SMILES | GI50 [1] | GI50 [2] | GI50 [3] | GI50 [4] | GI50 [5] [µM] | GI50 [6] | GI50 [7] | GI50 [8] | GI50 [9] | GI50 [10] | GI50 [11] | GI50 [12] | GI50 [13] | GI50 [14] | GI50 [15] | GI50 [16] | GI50 [17]
Cc1cn2c(=O)c3ncn(C4OC(CO)C(O)C4O)c3n(C)c2n1 (stereo not drawn) | > 100 µM (inactive) | > 100 µM (inactive) | > 100 µM (inactive) | > 100 µM (inactive) | > 100 | > 100 µM (inactive) | > 100 µM (inactive) | > 100 µM (inactive) | > 100 µM (inactive) | > 100 µM (inactive) | > 100 µM (inactive) | > 100 µM (inactive) | > 100 µM (inactive) | > 100 µM (inactive) | > 100 µM (inactive) | > 100 µM (inactive) | –
O=C1c2ccccc2C(=O)c2sc(Nc3cccc(Cl)c3)nc21 | 1.56 µM (inactive) | 2.21 µM (inactive) | 1.61 µM (inactive) | 1.36 µM (inactive) | 1.88 | – | 2.03 µM (inactive) | 0.492 µM (active) | 1.52 µM (inactive) | 1.45 µM (inactive) | 1.12 µM (active) | 2.22 µM (inactive) | 2.07 µM (inactive) | 1.82 µM (inactive) | 2.88 µM (inactive) | 1.73 µM (inactive) | 2.34 µM (inactive)
O=c1c2ccccc2c(=O)c2c1cc(Cl)c1[nH]c3c([nH]c12)c(Cl)cc1c(=O)c2ccccc2c(=O)c13 | > 100 µM (inactive) | > 100 µM (inactive) | > 100 µM (inactive) | > 100 µM (inactive) | > 100 | – | > 100 µM (inactive) | > 100 µM (inactive) | > 100 µM (inactive) | > 100 µM (inactive) | > 100 µM (inactive) | > 100 µM (inactive) | > 100 µM (inactive) | > 100 µM (inactive) | > 100 µM (inactive) | > 100 µM (inactive) | –
CCOc1ccc(/N=C\c2ccc3cc(C)ccc3n2)cc1 | 51.6 µM (inactive) | > 100 µM (inactive) | 35.8 µM (inactive) | 22.5 µM (inactive) | 41.8 | 66.8 µM (inactive) | 37.1 µM (inactive) | 27.3 µM (inactive) | > 100 µM (inactive) | > 100 µM (inactive) | 33.1 µM (inactive) | > 100 µM (inactive) | 49 µM (inactive) | 40.7 µM (inactive) | 79.3 µM (inactive) | 37.9 µM (inactive) | –
O/N=C1/C(=C/c2ccc3c(c2)OCO3)CCCC1C(NO)c1ccc2c(c1)OCO2 (stereo not drawn) | 28.9 µM (inactive) | 29.9 µM (inactive) | 31.6 µM (inactive) | 19.2 µM (inactive) | 32 | – | 22.7 µM (inactive) | 16.9 µM (inactive) | 22 µM (inactive) | 17.7 µM (inactive) | 14.6 µM (inactive) | – | 32.4 µM (inactive) | 27.2 µM (inactive) | 26.1 µM (inactive) | 19 µM (inactive) | –
O=C(O)CN(c1ccccc1)S(=O)(=O)c1cccc([N+](=O)[O-])c1 | > 100 µM (inactive) | > 100 µM (inactive) | > 100 µM (inactive) | > 100 µM (inactive) | > 100 | > 100 µM (inactive) | > 100 µM (inactive) | > 100 µM (inactive) | > 100 µM (inactive) | > 100 µM (inactive) | > 100 µM (inactive) | > 100 µM (inactive) | > 100 µM (inactive) | > 100 µM (inactive) | > 100 µM (inactive) | > 100 µM (inactive) | –
